Reference: patent US20110263657A1, “DIARYL UREAS FOR TREATING HEART FAILURE” (BAYER SCHERING PHARMA AKTIENGESELLSCHAFT, priority 2008, published 2011)

System: mouse models of pressure-induced heart failure
Assay: Pressure-induced heart failure (TAC) in mice, organ weights and hemodynamic measurements
Assay type: in vivo
Details: banded (TAC) mice, 50 mg/kg/d po for 4 weeks
Method: The effects of the compound and drug combinations according to the invention are tested in vivo in mouse models of pressure-induced heart failure.
Methods: Pressure-Induced Heart Failure (TAC)
Surgery: 8 weeks old mice were pre-anesthetized for 2-3 min in an isofluran flooded box and then intubated (tubus of own fabrication).
Mice were placed on the right side on a heating panel and the tubus was connected to a ventilation pump (Mini Vent Type 845, Hugo Sachs Electronic) which allowed the further ventilation of mice with isofluran (1.5%).
Mice were prepared for the surgery: eyes moistened with Bepanthen® salve (pharmaceutical ointment containing dexpanthenol), operation field shaved and disinfected, mice fixated with tape in a right lateral position.
The skin cut was placed ca 2 mm behind the left elbow and was 5 mm length and vertical. Pectoral muscles were separated until ribs. A wound-spreader was placed between the 2nd and the 3rd rib and thymus was visualized. After pushing by side the thymus V. cava, A pulmonalis and Aorta with both carotid branching were viewed. With help from a curved polished vessel catheter a ligation thread was placed around the aorta between both carotid branching. The aorta was constricted to a diameter of 0.6 mm with help from a splint.
By sham operated mice the same procedure was effectuated but the aorta was not constricted.
Before they woke up, mice were given 5 mg/5 ml/kg sc Rimadyl® (Pfizer, Carprofen), wound was cleaned with […] and coated with antibiotic salve (Neomycin® salve) and Bepanthen® salve was removed from the eyes.
After awaking from anesthesia the tubus was taken off and mice were placed in their cages heated with heating panels for at least half an hour.
Mice were divided into 3 groups (n=10-12): • sham operated with vehicle treatment • placebo with vehicle treatment • Sorafenib: 50 mg/kg/d in vehicle
Substances were dissolved in 10% Ethanol, 40% Solutol and 50% water.
Application volumes: 10 ml/kg/d po
Treatment: begin 1 day after surgery for 4 weeks
After 4 weeks of treatment hemodynamic measurement were performed and mice were sacrificed.
Hemodynamic measurements: Mice were pre-anesthetized for 2-3 min in an isofluran flooded box, followed by fixation in an anesthesia mask (continuous flow of 1.5% isofluran by spontaneous breathing of the mouse). Mice were placed on the back on a heating panel.
Throats were shaved and the skin incised on the median line. The right A. carotis was prepared and ligated cranial. A tip-catheter (Millar Micro-Tip-Transducer, 1.0 oder 1.4 French, Firma HSE) was introduced in the right A. carotis and pushed into the left ventricle and fixated. There, pressure of the left ventricle was registered for a few minutes (after reaching a steady state) over the catheter and analyzed by the Millar Chart 5 software. After the measurements blood samples were taken. Finally organs (heart, lung, liver, right kidney) were collected.

CNC(=O)c1cc(Oc2ccc(NC(=O)Nc3ccc(Cl)c(C(F)(F)F)c3)cc2)ccn1 [Sorafenib, 4{4-[3-(4-chloro-3-trifluoromethylphenyl)-ureido]-phenoxy}-pyridine-2-carboxylic acid methyl amide]
Relaxation constant tau, increment: inhibited | Heart weight/body weight ratio (hypertrophy) (compared to sham operated mice): completely inhibited | Left ventricular weight/body weight ratio (hypertrophy) (compared to sham operated mice): completely inhibited | Left ventricular end diastolic pressure, augmentation compared to sham operated mice (p<0.05 compared to placebo): 7% | Left ventricular systolic pressure, augmentation compared to sham operated mice (p<0.05 compared to placebo): 8%
